Experimental data taken from EP4545091A1 (priority 2023, dated 2025).
pIC50: −log10 of the molar value. Bridges are numbered along the chain shown (N, C = ends).

Experiments:
[1] = test system: Omicron XBB.1.5 spike; format: cell-based, SARS-CoV-2
[2] = test system: SARS-CoV-2 Omicron BA.1 variant; settings: 48 h

Sequence: VAACNLPIVRGPCRAFIQLWAFDAVKGKCVLFPYGGCQGNGNKFYSEKECREYCGVPGDGD (disulfide 4-54, 13-37, 29-50) [Trypstatin]
- activity against Omicron XBB.1.5 variant in a pseudoparticle assay [1]: verified activity
- pIC50 [2]: 6.92
